Data from BindingDB's records for patent WO2025049746 (Eikon Therapeutics, 2025).

Experiments:
[1] = target: T1, Bifunctional 3'-5' exonuclease/ATP-dependent helicase WRN [480-1251] (UniProt Q14191); assay: Biochemical Activity Assays
T1 construct: 480-1251

[2] = target: Bifunctional 3'-5' exonuclease/ATP-dependent helicase WRN (Homo sapiens, UniProt Q14191); assay: ADP-Glo Kinase Assay
Method: ATPase activity was measured using the ADP-Glo Kinase Assay following the manufacturers recommended protocol.

Sequence of Bifunctional 3'-5' exonuclease/ATP-dependent helicase WRN (Q14191 whole entry): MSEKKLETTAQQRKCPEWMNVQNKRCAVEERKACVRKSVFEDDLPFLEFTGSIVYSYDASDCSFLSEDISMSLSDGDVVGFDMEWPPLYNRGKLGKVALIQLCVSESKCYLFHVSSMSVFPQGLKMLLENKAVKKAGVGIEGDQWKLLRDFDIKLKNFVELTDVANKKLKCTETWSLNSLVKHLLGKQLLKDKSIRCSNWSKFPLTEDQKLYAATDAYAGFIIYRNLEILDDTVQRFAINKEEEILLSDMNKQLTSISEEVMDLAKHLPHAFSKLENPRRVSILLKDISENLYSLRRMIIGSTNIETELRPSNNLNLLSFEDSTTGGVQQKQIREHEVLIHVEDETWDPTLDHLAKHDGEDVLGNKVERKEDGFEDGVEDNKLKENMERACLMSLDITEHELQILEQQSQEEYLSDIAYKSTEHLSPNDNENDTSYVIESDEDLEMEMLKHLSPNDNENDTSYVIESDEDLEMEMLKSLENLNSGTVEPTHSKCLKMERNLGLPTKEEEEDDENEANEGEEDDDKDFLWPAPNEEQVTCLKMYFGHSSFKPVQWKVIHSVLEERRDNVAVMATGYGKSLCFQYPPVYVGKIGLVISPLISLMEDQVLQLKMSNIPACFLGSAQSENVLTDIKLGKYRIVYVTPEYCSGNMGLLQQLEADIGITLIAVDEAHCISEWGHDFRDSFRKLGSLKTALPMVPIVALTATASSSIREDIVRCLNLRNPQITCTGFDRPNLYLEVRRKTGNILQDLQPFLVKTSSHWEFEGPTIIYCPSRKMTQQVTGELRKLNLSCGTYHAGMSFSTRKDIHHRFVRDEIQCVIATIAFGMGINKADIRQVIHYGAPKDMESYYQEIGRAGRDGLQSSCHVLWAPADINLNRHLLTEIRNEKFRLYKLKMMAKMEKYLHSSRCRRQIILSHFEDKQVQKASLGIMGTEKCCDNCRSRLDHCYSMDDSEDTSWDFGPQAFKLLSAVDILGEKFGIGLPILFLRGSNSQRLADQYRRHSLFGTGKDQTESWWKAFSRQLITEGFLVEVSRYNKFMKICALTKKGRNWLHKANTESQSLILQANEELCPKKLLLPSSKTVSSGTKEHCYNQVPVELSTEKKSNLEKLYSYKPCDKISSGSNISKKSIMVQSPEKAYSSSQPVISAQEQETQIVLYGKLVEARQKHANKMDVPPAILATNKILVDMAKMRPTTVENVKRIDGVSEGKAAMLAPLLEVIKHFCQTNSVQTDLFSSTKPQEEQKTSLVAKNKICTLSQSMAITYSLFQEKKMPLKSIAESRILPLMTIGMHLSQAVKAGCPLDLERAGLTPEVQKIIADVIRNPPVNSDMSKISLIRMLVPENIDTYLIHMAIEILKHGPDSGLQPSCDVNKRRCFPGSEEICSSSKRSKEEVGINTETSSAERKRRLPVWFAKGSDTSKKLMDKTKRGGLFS
T1 sequence (Q14191 480-1251): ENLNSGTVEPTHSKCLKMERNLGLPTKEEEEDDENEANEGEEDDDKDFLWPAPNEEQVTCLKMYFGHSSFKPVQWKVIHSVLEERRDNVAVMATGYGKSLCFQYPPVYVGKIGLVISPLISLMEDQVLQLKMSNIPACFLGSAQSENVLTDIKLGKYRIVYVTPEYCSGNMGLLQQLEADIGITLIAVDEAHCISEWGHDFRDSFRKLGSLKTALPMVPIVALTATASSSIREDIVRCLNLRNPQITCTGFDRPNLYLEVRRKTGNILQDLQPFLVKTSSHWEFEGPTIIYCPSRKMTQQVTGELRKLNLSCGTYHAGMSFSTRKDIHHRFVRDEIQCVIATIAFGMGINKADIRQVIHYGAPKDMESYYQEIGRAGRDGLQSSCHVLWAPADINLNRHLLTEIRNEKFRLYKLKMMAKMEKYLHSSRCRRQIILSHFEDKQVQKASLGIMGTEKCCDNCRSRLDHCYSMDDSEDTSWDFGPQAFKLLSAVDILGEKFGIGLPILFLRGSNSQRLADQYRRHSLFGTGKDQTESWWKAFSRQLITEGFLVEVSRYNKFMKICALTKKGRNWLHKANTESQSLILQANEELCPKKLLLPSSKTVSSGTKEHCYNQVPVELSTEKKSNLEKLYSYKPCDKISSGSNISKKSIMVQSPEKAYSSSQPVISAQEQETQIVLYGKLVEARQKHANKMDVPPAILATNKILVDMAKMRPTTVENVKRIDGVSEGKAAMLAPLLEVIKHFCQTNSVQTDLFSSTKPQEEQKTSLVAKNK

| SMILES | IC50 [1] | IC50 [2] |
| --- | --- | --- |
| CCc1c(N2CCN(C(=O)c3ncnc(C)c3O)CC2)c(=O)n2nc(-c3coc4ccccc34)nc2n1CC(=O)Nc1ccc(C(F)(F)F)cc1Cl [WO2025049746, Example 327] | 56 nM | 30 nM |
| Cc1ncnc(C(=O)N2CCN(c3c(OC(F)F)n(CC(=O)Nc4ccc(C(F)(F)F)cc4Cl)c4nc(-c5ccc6c(c5)COC6)nn4c3=O)CC2)c1O [WO2025049746, Example 375] | 4900 nM | 1140 nM |
| CCc1c(N2CCN(C(=O)c3ncnc(C)c3O)CC2)c(=O)n2nc(-c3ccn4c(cc(=O)n4C(F)F)c3F)nc2n1CC(=O)Nc1ccc(C(F)(F)F)cc1Cl [WO2025049746, Example 335] | 58 nM | 64 nM |
| CCc1c(N2CCN(C(=O)c3nc4n(c(=O)c3O)CCOC4)CC2)c(=O)n2nc(C3=CCOCC3)nc2n1CC(=O)Nc1ccc(C(F)(F)F)cc1Cl [WO2025049746, Example 32] | 25 nM | 29.7 nM |
| CCc1c(N2CCN(C(=O)c3ncnc(C)c3O)CC2)c(=O)n2nc(C3=CCOCC3)nc2n1CC(=O)Nc1ccc(C(F)(F)F)c2cccnc12 [WO2025049746, Example 360] | 1990 nM | 2140 nM |
| CCc1c(N2CCN(C(=O)c3ncnc(C)c3O)CC2)c(=O)n2nc(C3=CCOCC3)nc2n1CC(=O)NC12CC(C3CC3)(C1)C2 [WO2025049746, Example 359] | 148 nM | 232 nM |
| CCc1c(N2CCN(C(=O)c3ncnc(C)c3O)CC2)c(=O)n2nc(-c3cc4n(n3)CCC4)nc2n1CC(=O)Nc1ccc(C(F)(F)F)cc1Cl [WO2025049746, Example 183] | 46 nM | 52 nM |
| CCc1c(N2CCN(C(=O)c3ncnc(C)c3O)CC2)c(=O)n2nc(-c3cc4c(cc3C)C(C)(C)OC4)nc2n1CC(=O)Nc1ccc(C(F)(F)F)cc1Cl [WO2025049746, Example 213] | 58 nM | 85 nM |
| CCc1c(N2CCN(C(=O)c3ncnc(C)c3O)CC2)c(=O)n2nc(-c3ccn4c(C)nnc4c3)nc2n1CC(=O)Nc1ccc(C(F)(F)F)cc1Cl [WO2025049746, Example 246] | 42 nM | 37 nM |
| CCc1c(N2CCCC3C2CCN3C(=O)c2ncnc(C)c2O)c(=O)n2nc(C3=CCOCC3)nc2n1CC(=O)Nc1ccc(C(F)(F)F)cc1Cl (stereo unspecified) [WO2025049746, Example 345] | 29700 nM | 7450 nM |
| CCc1c(N2CCN(C(=O)c3ncnc(C)c3O)CC2)c(=O)n2nc(-c3cc4c(cc3F)C3(CN(C)C3)OC4)nc2n1CC(=O)Nc1ccc(C(F)(F)F)cc1Cl [WO2025049746, Example 273] | 48 nM | 43 nM |
| CCc1c(N2CCN(C(=O)c3ncnc(C)c3O)CC2)c(=O)n2nc(N3CC4(COC4)C3)nc2n1CC(=O)Nc1ccc(C(F)(F)F)cc1Cl [WO2025049746, Example 26] | 62.1 nM | 76.8 nM |
| CCc1c(N2CCN(C(=O)c3ncnc(C)c3O)CC2)c(=O)n2nc(-c3cc4cn(C(F)F)nc4cc3F)nc2n1CC(=O)Nc1ccc(C(F)(F)F)cc1Cl [WO2025049746, Example 291] | 31 nM | 30 nM |
| CCc1c(N2CCN(C(=O)c3ncnc(C)c3O)CC2)c(=O)n2nc(-c3ccc4c(c3)C[C@@H](OC)C4)nc2n1CC(=O)Nc1ccc(C(F)(F)F)cc1Cl [WO2025049746, Example 182] | 31 nM | 37 nM |
| CCc1c(N2CCN(C(=O)c3ncnc(C)c3O)CC2)c(=O)n2nc(-c3ccc4c(c3)CC[C@H]4OC)nc2n1CC(=O)Nc1ccc(C(F)(F)F)cc1Cl [WO2025049746, Example 208] | 34 nM | 39 nM |
| CCc1c(N2CCN(C(=O)c3ncnc(C)c3O)CC2)c(=O)n2nc(-c3ccc4nn(C)cc4c3C)nc2n1CC(=O)Nc1ccc(C(F)(F)F)cc1Cl [WO2025049746, Example 295] | 35 nM | 34 nM |
| CCc1c(N2CCN(C(=O)c3ncnc(C)c3O)CC2)c(=O)n2nc(-c3ccc4c(c3)CC(C)O4)nc2n1CC(=O)Nc1ccc(C(F)(F)F)cc1Cl (stereo unspecified) [WO2025049746, Example 168] | 35 nM | 45 nM |
| CCc1c(N2CCN(C(=O)c3ncnc(C)c3O)CC2)c(=O)n2nc(C3=CCOCC3)nc2n1CC(=O)NC12COC(C(F)(F)F)(C1)C2 [WO2025049746, Example 70] | 748 nM | 852 nM |
| CCc1c(N2CCN(C(=O)c3ncnc(C)c3O)CC2)c(=O)n2nc(-c3ccc4c(c3)c(C)nn4C)nc2n1CC(=O)Nc1ccc(C(F)(F)F)cc1Cl [WO2025049746, Example 312] | 37 nM | 35 nM |
| CCc1c(N2CCN(C(=O)c3ncnc(C)c3O)CC2)c(=O)n2nc(-c3ccc4c(c3)CO[C@H]4C(F)(F)F)nc2n1CC(=O)Nc1ccc(C(F)(F)F)cc1Cl [WO2025049746, Example 274] | 554 nM | 493 nM |
| CCc1c(N2CCN(C(=O)c3ncnc(C)c3O)CC2)c(=O)n2nc(-c3ccc4c(c3)OC(F)(F)O4)nc2n1CC(=O)Nc1ccc(C(F)(F)F)cc1Cl [WO2025049746, Example 179] | 59 nM | 77 nM |
| CCc1c(N2CCN(C(=O)c3ncnc(C)c3O)CC2)c(=O)n2nc(-c3ccc4c(c3)[C@H](C)OC4)nc2n1CC(=O)Nc1ccc(C(F)(F)F)cc1Cl [WO2025049746, Example 189] | 29 nM | 34 nM |
| CCc1c(N2CCN(C(=O)c3ncnc(C)c3O)CC2)c(=O)n2nc(-c3cc4ccnn4cc3C)nc2n1CC(=O)Nc1ccc(C(F)(F)F)cc1Cl [WO2025049746, Example 243] | 34 nM | 26 nM |
| CCc1c(N2CCN(C(=O)c3ncnc(C)c3O)CC2)c(=O)n2nc(-c3ccc4c(c3)[C@H](C(F)(F)F)OC4)nc2n1CC(=O)Nc1ccc(C(F)(F)F)cc1Cl [WO2025049746, Example 277] | 173 nM | 176 nM |
| CCc1c(N2CCN(C(=O)CO)CC2)c(=O)n2nc(C3=CCOCC3)nc2n1CC(=O)Nc1ccc(C(F)(F)F)cc1Cl [WO2025049746, Example 53] | 254 nM | 440 nM |
| CCc1c(N2CCN(C(=O)c3ncnc(C)c3O)CC2)c(=O)n2nc(-c3cc(F)c4c(c3)COC4(C)C)nc2n1CC(=O)Nc1ccc(C(F)(F)F)cc1Cl [WO2025049746, Example 212] | 73 nM | 86 nM |
| CCc1c(N2CCN(C(=O)c3ncnc(C)c3O)CC2)c(=O)n2nc(C3=CCOCC3)nc2n1CC(=O)NC12CC(C)(C1)C2(F)F [WO2025049746, Example 371] | 1110 nM | 1480 nM |
| CCc1c(N2CCN(C(=O)c3ncnc(C)c3O)CC2)c(=O)n2nc(C3=CCOCC3)nc2n1CC(=O)NC1CC2(C1)CC2(F)F (stereo unspecified) [WO2025049746, Example 366] | 2540 nM | 4200 nM |
| CCc1c(N2CCN(C(=O)c3ncnc(C)c3O)CC2)c(=O)n2nc(C3=CCOCC3)nc2n1CC(=O)NC12CC(c3ccc(F)cc3)(C1)C2 [WO2025049746, Example 353] | 29700 nM | 6860 nM |
| CCc1c(N2CCN(C(=O)c3ncnc(C)c3O)CC2)c(=O)n2nc(-c3ccc4c(c3)CC[C@@H]4OC)nc2n1CC(=O)Nc1ccc(C(F)(F)F)cc1Cl [WO2025049746, Example 207] | 33 nM | 39 nM |

The remaining lines, values ahead:

| IC50 [1] | IC50 [2] | SMILES |
| --- | --- | --- |
| 40 nM | 44 nM | CCc1c(N2CCN(C(=O)c3ncnc4cc[nH]c34)CC2)c(=O)n2nc(-c3ccc4c(c3)COC4)nc2n1CC(=O)Nc1ccc(C(F)(F)F)cc1Cl [WO2025049746, Example 444] |
| 45 nM | 40 nM | CCc1c(N2CCN(C(=O)c3c(C#N)cnc(C)c3O)CC2)c(=O)n2nc(-c3ccc4c(c3)COC4)nc2n1CC(=O)Nc1ccc(C(F)(F)F)cc1Cl [WO2025049746, Example 449] |
| 38 nM | 38 nM | CCc1c(N2CCN(C(=O)c3ncnc(C)c3O)CC2)c(=O)n2nc(-c3ccc4c(c3)COC4)nc2n1CC(=O)Nc1c(Cl)cc(C(F)(F)F)c2ccoc12 [WO2025049746, Example 447] |
| 67 nM | 54 nM | CCc1c(N2CCN(C(=O)c3ncnc(C)c3O)CC2)c(=O)n2nc(-c3ccc4c(c3)COC4)nc2n1CC(=O)Nc1c(Cl)cc(C(F)(F)F)c2c1OCC2 [WO2025049746, Example 442] |
| 373 nM | 490 nM | CCc1c(N2CCN(C(=O)c3nccc4cc[nH]c34)CC2)c(=O)n2nc(-c3ccc4c(c3)COC4(C)C)nc2n1CC(=O)Nc1ccc(C(F)(F)F)cc1Cl [WO2025049746, Example 454] |
| 1130 nM | 2370 nM | CCc1c(N2CCN(C(=O)c3ncnc(C)c3O)CC2)c(=O)n2nc(-c3ccc4c(c3)COC4)nc2n1CC(=O)Nc1c(Cl)cc(C(F)(F)F)cc1OC1CC1 [WO2025049746, Example 414] |
| 1200 nM | 1260 nM | CCc1c(N2CCN(C(=O)c3cc(C(C)C)c(O)cc3O)CC2)c(=O)n2nc(-c3ccc4c(c3)COC4)nc2n1CC(=O)Nc1ccc(C(F)(F)F)cc1Cl [WO2025049746, Example 408] |
| 232 nM | 420 nM | CCc1c(N2CCN(C(=O)c3ncnc(C)c3O)CC2)c(=O)n2nc(-c3cccc4c3OCCO4)nc2n1CC(=O)Nc1ccc(SC(F)(F)F)cc1 [WO2025049746, Example 411] |
| 53 nM | 50 nM | CCc1c(N2CCN(C(=O)c3nocc3O)CC2)c(=O)n2nc(-c3ccc4c(c3)COC4)nc2n1CC(=O)Nc1ccc(C(F)(F)F)cc1Cl [WO2025049746, Example 439] |
| 48 nM | 40 nM | CCc1c(N2CCN(C(=O)c3ccnc(C)c3O)CC2)c(=O)n2nc(-c3ccc4c(c3)COC4(C)C)nc2n1CC(=O)Nc1ccc(C(F)(F)F)cc1Cl [WO2025049746, Example 455] |
| 593 nM | 760 nM | CCc1c(N2CCN(C(=O)c3ncnc(C)c3O)CC2)c(=O)n2nc(-c3cccc4c3OCO4)nc2n1CC(=O)Nc1ccc(SC(F)(F)F)cc1 [WO2025049746, Example 394] |
| 25 nM | 30 nM | CCc1c(N2CCN(C(=O)c3ncnc(C)c3O)CC2)c(=O)n2nc(-c3ccc4c(c3)COC4)nc2n1CC(=O)Nc1ccc(Cl)c(OC(F)F)c1Cl [WO2025049746, Example 407] |
| 57 nM | 68 nM | CCc1c(N2CCN(C(=O)c3nc4c(cc3O)CCOC4)CC2)c(=O)n2nc(-c3ccc4c(c3)COC4)nc2n1CC(=O)Nc1ccc(C(F)(F)F)cc1Cl [WO2025049746, Example 441] |
